Tested on: T1, SNAP-hA1AR
T1 construct: expressed in transfected cells; host or cells: HEK293T, transient transfection (FuGENE HD)
Experiment: Live-cell confocal microscopy of SNAP-hA1AR HEK293T cells
Type: cell-based, human
Conditions: for fluorescent labeling of SNAP-hA1AR at the plasma membrane: 125 nM 11 or 50 nM 12 (then MetTet-SulfoCy5) for 2 h; for labeling of SNAP-hA1AR after pretreatment with 10 μM DPCPX: 10 μM DPCPX pretreatment 30 min; for fluorescence intensity after 10 μM DPCPX added to prelabeled cells: prelabeled 2 h, then 10 μM DPCPX 1 h, P > 0.05
From the text: Having investigated the molecular pharmacology of 11 and 12 in a series of in vitro assays, we sought to apply the LD probes for studying A1AR localization and dynamics in living cells. To this end, LD probes 11 and 12 were initially used in confocal microscopy studies to test their ability to label and allow visualization of the SNAP-hA1AR in living HEK293T cells (Figure 6). […] With both probes, the fluorescence labeling colocalized with SNAP-hA1AR labeled with AF488 (Figure 6A,C top frames).
Cells were labeled with membrane impermeable SNAP-AF488 for 30 min prior to treatment with 11 and 12 for 2 h, respectively, with the latter followed by the addition of 1 μM methyltetrazine (Met-Tet) SulfoCy5 for 5 min prior to the acquisition of the single equatorial images. […] For all the conditions, left-hand frames represent the SulfoCy5 channel (magenta), middle frames are the SNAP-hA1AR AF488 (green) channel, and right-hand frames represent merged images of both channels, with white indicating the overlap of magenta and green. (B, E) Fluorescence intensity plots (16-bit) were generated for both SulfoCy5 and AF488 channels by hand drawing the region of interest (ROI) in images obtained as indicated in (A) and (C) using ImageJ (FIJI). Data points represent membrane fluorescence signals measured from ROI drawn in each cell, and error bars represent mean ± standard deviation (SD). Images are representative of images obtained from three independent experiments from which 72 to 83 cells were analyzed. Scale bars are = 13 μm for (A) and 10 μm for (C). (D) Schematic representation of the biorthogonal IEDDA reaction between the TCO group (covalently attached to the hA1AR by ligand-directed chemistry) and SulfoCy5-conjugated methyltetrazine (MetTet-SulfoCy5). Following the click IEDDA reaction, the formation of the 4,5-dihydropyridazine cycloadduct increases the fluorescence intensity of the fluorophore conjugated to the tetrazine moiety. […]
using a Zeiss LSM880 confocal microscope as described in the confocal imaging […]
HEK293T cells were seeded in 8-well plates (Nunc Lab-Tek, Thermo Fischer Scientific), pre-coated with Poly-D-Lysine, at 20,000 cells/well in DMEM/10% FCS.
24 h post seeding, cells were transiently transfected with human SNAP-A1. Transient transfections were carried out following manufacturer’s protocol: used FuGENE HD at 3:1 ratio of reagent to cDNA with a total of 300 ng cDNA per well. Transfection solutions were made up in Gibco Opti-MEM (Thermo Fischer Scientific), incubated at RT for 5 min and added as 11 µL per well. Cells were incubated for additional 24 h at 37 OC, 5% CO2. On the day of the experiment medium was removed and the cells were labelled for 30 min at 37 °C with 0.2 µM SNAP-surface AF488 in SFM. After washing twice with SFM the cells were treated with or without 10 µM competitive A 1AR- […]
Following the incubation step, the ligand-directed probe under investigation (SulfoCy5 or PEG-TCO) (11 or 12) was added to the appropriate wells at the required concentrations and incubated for 2 h. After that time, cells were washed 4x with warm HBSS, followed by the addition of 300 µL warm HBSS and imaged. For click-chemistry reactions, after washing 4x with warm HBSS, cells pre-labelled with the trans-cyclooctene-conjugated 12 (PEG-TCO) at 50 nM were subsequently treated with 1 µM Methyl-TetrazineSulfoCy5 (Lumiprobe, Germany) for 5 min at RT in the dark. Cells were washed 2x with warm HBSS and imaged. When […]
1 h before imaging. […]
Live cell imaging was performed using either a Zeiss LSM 710 or LSM880 laser scanning confocal microscope fitted with a Zeiss C-Apochromat 40 × 1.2 NA water immersion objective. A 633 nm HeNe laser was used for the excitation of SulfoCy5 fluorophore and a 488/561/633 dichroic, and the emission was detected between 634 […]
and 755 nm. A 488 nm […] laser was used to excite SNAP-AF488 and the emission was detected between 493 and 586 nm. The pinhole diameter (1 Airy Unit; 1.1 μm […]

SMILES | fluorescent labeling of SNAP-hA1AR at the plasma membrane | labeling of SNAP-hA1AR after pretreatment with 10 μM DPCPX | fluorescence intensity after 10 μM DPCPX added to prelabeled cells
CCCCn1c(=O)c2[nH]c(C34CCC(C(=O)NCCNC(=O)CCNC(=O)c5ccc(OC(=O)CCCCC[N+]6=C(/C=C/C=C/C=C7/N(C)c8ccc(S(=O)(=O)O)cc8C7(C)C)C(C)(C)c7cc(S(=O)(=O)[O-])ccc76)c(F)c5)(CC3)CC4)nc2n(CCCC)c1=O [Compound 11, 1-(6-(4-((3-((2-(4-(1,3-Dibutyl-2,6-dioxo-2,3,6,7-tetrahydro-1H-purin-8-yl)bicyclo[2.2.2]octane-1-carboxamido)ethyl)amino)-3-oxopropyl)carbamoyl)-2-fluorophenoxy)-6-oxohexyl)-3,3-dimethyl-2-((1E,3E)-5-((E)-1,3,3-trimethyl-5-sulfoindolin-2-ylidene)penta-1,3-dien-1-yl)-3H-indol-1-ium-5-sulfonate] | Clear fluorescent labeling | prevented the labeling | did not change their fluorescence intensities
CCCCn1c(=O)c2[nH]c(C34CCC(C(=O)NCCNC(=O)CCNC(=O)c5ccc(OC(=O)CCC(=O)NCCOCCOCCNC(=O)O[C@H]6CC/C=C/CCC6)c(F)c5)(CC3)CC4)nc2n(CCCC)c1=O [Compound 12, 4-((3-((2-(4-(1,3-Dibutyl-2,6-dioxo-2,3,6,7-tetrahydro-1H-purin-8-yl)bicyclo[2.2.2]octane-1-carboxamido)ethyl)amino)-3-oxopropyl)carbamoyl)-2-fluorophenyl (R,E)-1-(Cyclooct-4-en-1-yloxy)-1,12-dioxo-5,8-dioxa-2,11-diazapentadecan-15-oate] | Clear fluorescent labeling | prevented the labeling | did not change their fluorescence intensities
